Some test systems named below: SF-295 CNS; COLO 205 colon; HOP-62 NSCLC; SF-268 CNS; ACHN renal; 786-0 renal; EKVX NSCLC; LOX IMVI melanoma; SNB-75 CNS; SNB-19 CNS.
What all share (assay): inhibition of tumour cell growth, NCI panel, 48 h

In PubChem BioAssay (NCI) one finds GI50 and TGI data, which are given here for 8 compounds.

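Each compound was tested at five concentrations against cells in 96-well plates for 48 hours. At the GI50, growth is halved. TGI: total growth inhibition.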 Where only a bound is given, the exact number is not on record here.

In the case of `Cc1ccc(Nc2[nH]c(C(=O)c3ccc(Cl)cc3)c(N)c2C(=S)Nc2ccccc2)nc1`, the GI50 in the experiment on SF-295 CNS is 21.5 µM; in the experiment with COLO 205 colon, 31.9 µM; with HOP-62 NSCLC, 35.9 µM; in the experiment on SF-268 CNS, 32.7 µM; in the experiment on ACHN renal it was 31.9 µM; in the experiment on 786-0 renal, 35.7 µM. Further, the GI50 with EKVX NSCLC is 35.5 µM; in the experiment with LOX IMVI melanoma it was 23 µM; in the experiment with SNB-75 CNS it was 79.3 µM; with SNB-19 CNS, 39.4 µM. The TGI with SF-295 CNS is 67.3 µM; in the experiment with COLO 205 colon, > 100 µM; with HOP-62 NSCLC, > 100 µM; with SF-268 CNS, > 100 µM; in the experiment with ACHN renal, > 100 µM; in the experiment with 786-0 renal, > 100 µM. In addition, the TGI was > 100 µM in the experiment on EKVX NSCLC, 53.1 µM in the experiment on LOX IMVI melanoma, > 100 µM in the experiment on SNB-75 CNS and > 100 µM with SNB-19 CNS.
For the compound `COc1ccc2[nH]c(-c3ccccc3)c(C=C(C#N)C#N)c2c1`, the GI50 is 4.15 µM in the experiment on SF-295 CNS; 2.11 µM in the experiment on COLO 205 colon; 5.31 µM with HOP-62 NSCLC; 8.27 µM in the experiment on SF-268 CNS; 7.41 µM in the experiment with ACHN renal; 6.63 µM in the experiment with 786-0 renal. The GI50 with EKVX NSCLC is 4.05 µM; in the experiment on LOX IMVI melanoma it was 4.88 µM; with SNB-75 CNS, 2.76 µM; in the experiment with SNB-19 CNS it was 6.04 µM. Also, the TGI in the experiment on SF-295 CNS was > 100 µM; in the experiment with COLO 205 colon it was 6.83 µM; with HOP-62 NSCLC, 36.1 µM; in the experiment on SF-268 CNS, > 100 µM; with ACHN renal, > 100 µM; in the experiment on 786-0 renal it was > 100 µM. Besides, the TGI is > 100 µM in the experiment with EKVX NSCLC, > 100 µM with LOX IMVI melanoma, 21.2 µM with SNB-75 CNS and > 100 µM in the experiment with SNB-19 CNS.
For the compound `COc1cc(CNc2nc3cc(N)cc(N)c3nc2-c2ccccc2)cc(OC)c1OC`, the GI50 is 1.67 µM in the experiment on SF-295 CNS; 3.77 µM with COLO 205 colon; 17.1 µM in the experiment with HOP-62 NSCLC; 2.93 µM in the experiment with SF-268 CNS; 5.33 µM with ACHN renal; 15.6 µM in the experiment on 786-0 renal. Also, the GI50 with EKVX NSCLC is 1.94 µM; in the experiment on LOX IMVI melanoma, 3.19 µM; in the experiment on SNB-75 CNS it was 0.813 µM; in the experiment with SNB-19 CNS, 7.22 µM. The TGI is 5.62 µM in the experiment on SF-295 CNS; > 50 µM with COLO 205 colon; > 50 µM in the experiment on HOP-62 NSCLC; 14 µM with SF-268 CNS; 11.2 µM in the experiment on ACHN renal; > 50 µM in the experiment with 786-0 renal. For the same compound, the TGI was 8.31 µM in the experiment on EKVX NSCLC, 10.4 µM with LOX IMVI melanoma, 14.6 µM in the experiment on SNB-75 CNS and 20.8 µM in the experiment on SNB-19 CNS.
For `COc1cc(-c2nc3ccccc3[nH]2)ccc1OCC(=O)N=Nc1c(O)[nH]c2ccc(Cl)cc12`, the GI50 with SF-295 CNS is 1.81 µM; in the experiment on COLO 205 colon, 1.89 µM; with HOP-62 NSCLC it was 1.79 µM; with SF-268 CNS, 1.66 µM; in the experiment with ACHN renal, 4.75 µM; in the experiment on 786-0 renal, 1.84 µM. Besides, the GI50 in the experiment with EKVX NSCLC was 4.94 µM; in the experiment with LOX IMVI melanoma, 0.337 µM; in the experiment with SNB-75 CNS, 1.19 µM; in the experiment on SNB-19 CNS, 1.63 µM. In addition, the TGI in the experiment on SF-295 CNS is 3.35 µM; in the experiment on COLO 205 colon it was 3.79 µM; in the experiment with HOP-62 NSCLC it was 3.44 µM; with SF-268 CNS, 3.34 µM; in the experiment on ACHN renal, > 100 µM; with 786-0 renal, 3.53 µM. The TGI in the experiment on EKVX NSCLC was > 100 µM; in the experiment with LOX IMVI melanoma it was 1.24 µM; with SNB-75 CNS, 2.64 µM; in the experiment with SNB-19 CNS it was 3.04 µM.
Turning to `CCC(C(=O)c1cccs1)C(O)(C(F)(F)F)C(F)(F)F` (stereo not given), the TGI with SF-295 CNS, with COLO 205 colon, in the experiment with HOP-62 NSCLC, in the experiment on SF-268 CNS, in the experiment on ACHN renal and in the experiment with 786-0 renal was > 100 µM in each case. The TGI with EKVX NSCLC, in the experiment with LOX IMVI melanoma, in the experiment on SNB-75 CNS and with SNB-19 CNS was > 100 µM each time.
In the case of `CCCCNC(=O)OCC(COc1ccccc1OC)OC(=O)NCCCC` (stereo not given), the TGI in the experiment with SF-295 CNS, in the experiment on COLO 205 colon, in the experiment with HOP-62 NSCLC, in the experiment on SF-268 CNS, in the experiment on ACHN renal and in the experiment with 786-0 renal was > 100 µM each time. Further, the TGI with EKVX NSCLC, in the experiment with LOX IMVI melanoma, with SNB-75 CNS and with SNB-19 CNS was > 100 µM throughout.
Regarding `CC(N)(Cc1c[nH]c2ccccc12)C(=O)O` (stereo not given), the GI50 in the experiment with SF-295 CNS, in the experiment on COLO 205 colon, with HOP-62 NSCLC, in the experiment with SF-268 CNS, with ACHN renal and in the experiment on 786-0 renal was > 2500 µM each time. For the same compound, the GI50 in the experiment on EKVX NSCLC, in the experiment on LOX IMVI melanoma, in the experiment on SNB-75 CNS and in the experiment on SNB-19 CNS was > 2500 µM throughout. The TGI in the experiment on SF-295 CNS, with COLO 205 colon, in the experiment on HOP-62 NSCLC, in the experiment on SF-268 CNS, with ACHN renal and in the experiment on 786-0 renal was > 2500 µM throughout. Also, the TGI in the experiment with EKVX NSCLC, in the experiment on LOX IMVI melanoma, in the experiment with SNB-75 CNS and with SNB-19 CNS was > 2500 µM in each case.
As for `Clc1nc(Cl)c2ncn(C/C=C/Cn3cnc4c(Cl)nc(Cl)nc43)c2n1`, the GI50 with SF-295 CNS was 16.8 µM; in the experiment on COLO 205 colon it was 15.1 µM; in the experiment with HOP-62 NSCLC it was 15.6 µM; in the experiment with SF-268 CNS, 14.6 µM; in the experiment on ACHN renal it was 18.2 µM; in the experiment on 786-0 renal it was 23.4 µM. The GI50 in the experiment on EKVX NSCLC is 20.5 µM; in the experiment on LOX IMVI melanoma, 14.9 µM; with SNB-75 CNS, 19.1 µM; in the experiment with SNB-19 CNS it was 19.1 µM. Besides, the TGI with SF-295 CNS came out at 31.3 µM; in the experiment on COLO 205 colon it was 35.5 µM; with HOP-62 NSCLC it was 32.9 µM; with SF-268 CNS, 30.5 µM; in the experiment on ACHN renal, 32.2 µM; in the experiment on 786-0 renal it was 48.5 µM. Also, the TGI in the experiment on EKVX NSCLC was determined as 36.9 µM; in the experiment on LOX IMVI melanoma, 28.9 µM; in the experiment on SNB-75 CNS, 44 µM; with SNB-19 CNS, 38 µM.
